Data on one compound can be found in US6369075B1, “7[4′-trifluoromethyl-biphenyl-2-carbonyl)amino]-quinoline-3-carboxylic acid amides, and method of inhibiting the secretion of apolipoprotein B” (Pfizer, Inc., priority 1999, dated 2002).

Regarding `CCS(=O)(=O)O.CCS(=O)(=O)O.O=C(N[C@@H](c1ccccc1)c1ccccn1)c1cnc2cc(NC(=O)c3ccccc3-c3ccc(C(F)(F)F)cc3)ccc2c1` [Example 2D, (S)-7-[(4′-Trifluoromethyl-biphenyl-2-carbonyl)-amino]-quinoline-3-carboxylic acid (phenyl-pyridin-2-yl-methyl)-amide, bis-ethanesulfonate], the melting point was determined as 158 °C.

As a reminder, the melting point is the temperature of the solid-liquid transition.
